Read-outs that look alike come from different tables or passages of the source. Starred links: 1 amine or outer side, 2 acyl side, 3 side chain; linkers in the order of their positions; H or OH if unused. Positions of bridges follow the written chain, without caps; N, C: chain ends. Non-standard residues stand in square brackets, D forms with d. Residues, ends and D or L forms follow the SMILES beside them. ξ: configuration not given here. Phe(3-Me) = Cc1cccc(C[C@H](N)C(=O)O)c1; γGlu = O=C(O)[C@H](CCC(=O)[*:2])N[*:1]; 2Nal = N[C@@H](Cc1ccc2ccccc2c1)C(=O)O; βAsp = O=C(O)[C@H](CC(=O)[*:2])N[*:1]; NMeIle(3ξ) = CCC(C)[C@H](NC)C(=O)O; Tic = O=C(O)[C@@H]1Cc2ccccc2CN1; Cit = NC(=O)NCCC[C@H](N)C(=O)O; NMeL = CN[C@@H](CC(C)C)C(=O)O; Ahp(2) = CCCCC[C@H](N)C(=O)O; NMeNle = CCCC[C@H](NC)C(=O)O; Tle = CC(C)(C)[C@H](N)C(=O)O; NHexGly = CCCCCCNCC(=O)O; Nle = CCCC[C@H](N)C(=O)O; Orn = NCCC[C@H](N)C(=O)O; Aun = NCCCCCCCCCCC(=O)O; Dab = NCC[C@H](N)C(=O)O; Dap = NC[C@H](N)C(=O)O; AEEA = NCCOCCOCC(=O)O; NBuGly = CCCCNCC(=O)O
Target: T1, mouse VISTA (mVISTA) (Mus musculus, UniProt Q9D659)
T1 construct: expressed in transfected cells; host or cells: Human embryonic kidney 293T cells
T1 sequence (Q9D659 33-308): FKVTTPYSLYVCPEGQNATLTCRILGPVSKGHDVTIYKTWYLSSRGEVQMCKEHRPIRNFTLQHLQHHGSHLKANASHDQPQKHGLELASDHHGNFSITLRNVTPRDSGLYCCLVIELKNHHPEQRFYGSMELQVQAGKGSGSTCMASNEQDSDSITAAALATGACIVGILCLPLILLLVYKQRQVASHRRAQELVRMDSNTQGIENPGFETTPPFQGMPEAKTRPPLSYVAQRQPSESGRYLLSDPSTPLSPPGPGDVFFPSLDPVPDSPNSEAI
Assay: Cell-Based Binding High-Content Assay For mVISTA (HC CBA mVISTA)
In short: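 Competition of compound with a biotinylated peptide (final 2 nM, 30 min at RT) for binding to mVISTA on 293T cells, run under no-wash or wash (1 h compound preincubation then removal) formats. Readout by Alexa 647–streptavidin imaging on a high-content platform; four-parameter logistic fit gave IC50.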

[1] = 293T cells expressing mouse VISTA, competition with biotinylated peptide (2 nM), read-out: HC CBA mVISTA IC50
[2] = the 19th table, scaffold drawing 22, read-out: HC CBA mVISTA IC50

CCCCCCN1CC(=O)N[C@@H](Cc2ccc(O)cc2)C(=O)N[C@@H](CCCCC)C(=O)N[C@@H](CC(N)=O)C(=O)N[C@@H](CCCN)C(=O)N(C)[C@@H](CCCC)C(=O)N[C@@H](CCCCC)C(=O)N2CCC[C@H]2C(=O)N[C@@H](C(C)(C)C)C(=O)N[C@@H](CO)C(=O)N[C@H](C(=O)N[C@@H](CCC(=O)NCCCCCCCCCCC(=O)O)C(=O)O)CSCC(=O)N[C@@H](Cc2ccccc2)C(=O)N[C@@H](Cc2ccc(O)cc2)C(=O)N[C@@H](CC(=O)O)C1=O [Example 2143] ({CH2CO}-FYD[NHexGly]Y[Ahp(2)]N[Orn][NMeNle][Ahp(2)]P[Tle]SC[γGlu][Aun]-OH; thioether N-14)
IC50 (read-out: HC CBA mVISTA IC50): 29.4 nM

CCCCCCN1CC(=O)N[C@@H](Cc2ccc(O)cc2)C(=O)N[C@@H](CC(C)C)C(=O)NCC(=O)N[C@@H](CCCNC(=N)N)C(=O)N[C@@H](CCCCN)C(=O)N[C@@H](CCCCC)C(=O)N2CCC[C@H]2C(=O)N[C@@H](C(C)C)C(=O)N[C@@H](CO)C(=O)N[C@H](C(=O)NCC(N)=O)CSCC(=O)N[C@@H](Cc2ccccc2)C(=O)N[C@@H](Cc2ccc(O)cc2)C(=O)N[C@@H](CC(=O)O)C1=O [Example 1092] ({CH2CO}-FYD[NHexGly]YLGRK[Ahp(2)]PVSCG-NH2; thioether N-14)
IC50 [1]: 27.1 nM

CCCCCCN1CC(=O)N[C@@H](Cc2ccc(O)cc2)C(=O)N[C@@H](CC(C)C)C(=O)N[C@@H](CC(=O)O)C(=O)N[C@@H](CCCNC(=N)N)C(=O)N[C@@H](CC(C)C)C(=O)N[C@@H](CCCCC)C(=O)N2CCC[C@H]2C(=O)N[C@@H](C(C)C)C(=O)N[C@@H](CC(=O)O)C(=O)N[C@H](C(=O)NCC(N)=O)CSCC(=O)N[C@@H](Cc2ccccc2)C(=O)N[C@@H](Cc2ccc(O)cc2)C(=O)N[C@@H](CC(=O)O)C1=O [Example 1014] ({CH2CO}-FYD[NHexGly]YLDRL[Ahp(2)]PVDCG-NH2; thioether N-14)
IC50 [1]: 18.4 nM

CCCCCCN1CC(=O)N[C@@H](Cc2ccc(O)cc2)C(=O)N[C@@H](CCCC)C(=O)N[C@@H](CC(N)=O)C(=O)N[C@@H](CCCNC(=N)N)C(=O)N(C)[C@@H](CCCC)C(=O)N[C@@H](CCCCC)C(=O)N2CCC[C@H]2C(=O)N[C@@H](C(C)C)C(=O)N[C@@H](CC(=O)O)C(=O)N[C@H](C(=O)N[C@@H](CCN)C(=O)N[C@@H](CCC(N)=O)C(=O)O)CSCC(=O)N[C@@H](Cc2ccc3ccccc3c2)C(=O)N[C@@H](Cc2c[nH]c3ccccc23)C(=O)N[C@@H](CC(=O)O)C1=O [compound 1134] ({CH2CO}-[2Nal]WD[NHexGly]Y[Nle]NR[NMeNle][Ahp(2)]PVDC[Dab]Q-OH; thioether N-14)
IC50 (read-out: HC CBA mVISTA IC50): 13.7 nM

CCCCCCN1CC(=O)N[C@@H](Cc2ccc(O)cc2)C(=O)N[C@@H](CCCC)C(=O)N[C@@H](CC(N)=O)C(=O)N[C@@H](CCCNC(=N)N)C(=O)N(C)[C@@H](CCCC)C(=O)N[C@@H](CCCCC)C(=O)N2CCC[C@H]2C(=O)N[C@@H](C(C)C)C(=O)N[C@@H](CC(=O)O)C(=O)N[C@H](C(=O)N[C@@H](CN)C(=O)N[C@@H](CCC(N)=O)C(=O)O)CSCC(=O)N[C@@H](Cc2ccc3ccccc3c2)C(=O)N[C@@H](Cc2c[nH]c3ccccc23)C(=O)N[C@@H](CC(=O)O)C1=O [compound 1135] ({CH2CO}-[2Nal]WD[NHexGly]Y[Nle]NR[NMeNle][Ahp(2)]PVDC[Dap]Q-OH; thioether N-14)
IC50 (read-out: HC CBA mVISTA IC50): 39.1 nM

CCCCCCN1CC(=O)N[C@@H](Cc2ccc(O)cc2)C(=O)N[C@@H](CCCCC)C(=O)NCC(=O)N[C@@H](CCCNC(=N)N)C(=O)N[C@@H](CC(C)C)C(=O)N[C@@H](CCCCC)C(=O)N2CCC[C@H]2C(=O)N[C@@H](C(C)C)C(=O)N[C@@H](CO)C(=O)N[C@H](C(=O)NCC(N)=O)CSCC(=O)N[C@@H](Cc2ccccc2)C(=O)N[C@@H](Cc2ccc(O)cc2)C(=O)N[C@@H](CC(=O)O)C1=O [Example 1039] ({CH2CO}-FYD[NHexGly]Y[Ahp(2)]GRL[Ahp(2)]PVSCG-NH2; thioether N-14)
IC50 [1]: 2.2 nM

CCCCCCN1CC(=O)N[C@@H](Cc2ccc(O)cc2)C(=O)N[C@@H](CCCC)C(=O)N[C@@H](CC(N)=O)C(=O)N[C@@H](CCCNC(=N)N)C(=O)N(C)[C@@H](CC(C)C)C(=O)N[C@@H](CCCCC)C(=O)N2CCC[C@H]2C(=O)N[C@@H](C(C)C)C(=O)N[C@@H](CC(=O)O)C(=O)N[C@H](C(=O)N[C@@H](CO)C(=O)O)CSCC(=O)N[C@@H](Cc2ccc3ccccc3c2)C(=O)N[C@@H](Cc2c[nH]c3ccccc23)C(=O)N[C@@H](CC(=O)O)C1=O [compound 1240] ({CH2CO}-[2Nal]WD[NHexGly]Y[Nle]NR[NMeL][Ahp(2)]PVDCS-OH; thioether N-14)
IC50 (cell-based binding high-content assay, mVISTA, the 15th table, read-out: HC CBA mVISTA IC50): 14.4 nM

CCCCCCN1CC(=O)N[C@@H](Cc2ccc(O)cc2)C(=O)N[C@@H](CCCC)C(=O)N[C@@H](CC(N)=O)C(=O)N[C@@H](CCCNC(N)=O)C(=O)N[C@@H](CC(C)C)C(=O)N[C@@H](CCCCC)C(=O)N2CCC[C@H]2C(=O)N[C@@H](C(C)C)C(=O)N[C@@H](CC(=O)O)C(=O)N[C@H](C(=O)NCC(=O)O)CSCC(=O)N[C@@H](Cc2cccc(C)c2)C(=O)N[C@@H](Cc2c[nH]c3ccccc23)C(=O)N[C@@H](CC(=O)O)C1=O [compound 1423] ({CH2CO}-[Phe(3-Me)]WD[NHexGly]Y[Nle]N[Cit]L[Ahp(2)]PVDCG-OH; thioether N-14)
IC50 [2]: 16.7 nM

CCCCC[C@@H]1NC(=O)[C@H](CC(C)C)NC(=O)[C@H](CCCNC(=N)N)NC(=O)[C@H](CC(N)=O)NC(=O)[C@H](CCCC)NC(=O)[C@H](Cc2ccc(O)cc2)NC(=O)CN(CCCC)C(=O)[C@H](CC(=O)O)NC(=O)[C@H](Cc2ccc(O)cc2)NC(=O)[C@H](Cc2ccc3ccccc3c2)NC(=O)CSC[C@@H](C(=O)NCC(N)=O)NC(=O)[C@H](CC(=O)O)NC(=O)[C@H](C(C)C)NC(=O)[C@@H]2CCCN2C1=O [Ex 1271] ({CH2CO}-[2Nal]YD[NBuGly]Y[Nle]NRL[Ahp(2)]PVDCG-NH2; thioether N-14)
IC50 (cell-based binding high-content assay, mVISTA, the 16th table, read-out: HC CBA mVISTA IC50): 8 nM

CCCCCCN1CC(=O)N[C@@H](Cc2ccc(O)cc2)C(=O)N[C@@H](CC(C)C)C(=O)N[C@@H](CC(N)=O)C(=O)N[C@@H](CCCNC(=N)N)C(=O)N(C)[C@@H](CCCC)C(=O)N[C@@H](CCCCC)C(=O)N2CCC[C@H]2C(=O)N[C@@H](C(C)(C)C)C(=O)N[C@@H](CO)C(=O)N[C@H](C(=O)N[C@@H](CCN)C(=O)NCCOCCOCC(=O)N[C@@H](CC(=O)O)C(=O)NCCOCCOCC(=O)NCCCCCCCCCCC(=O)O)CSCC(=O)N[C@@H](Cc2ccccc2)C(=O)N[C@@H](Cc2ccc(O)cc2)C(=O)N[C@@H](CC(=O)O)C1=O [compound 2086] ({CH2CO}-FYD[NHexGly]YLNR[NMeNle][Ahp(2)]P[Tle]SC[Dab][AEEA]D[AEEA][Aun]-OH; thioether N-14)
IC50 (cell-based binding high-content assay, mVISTA, read-out: HC CBA miPrISTA IC50): 49.9 nM

CCCCCCN1CC(=O)N[C@@H](Cc2ccc(O)cc2)C(=O)N[C@@H](CCCC)C(=O)N[C@@H](CC(N)=O)C(=O)N[C@@H](CCCNC(=N)N)C(=O)N(C)[C@@H](C(C)CC)C(=O)N[C@@H](CCCCC)C(=O)N2CCC[C@H]2C(=O)N[C@@H](C(C)(C)C)C(=O)N[C@@H](CO)C(=O)N[C@H](C(=O)NCCOCCOCC(=O)N[C@@H](CCC(=O)NCCOCCOCC(=O)NCCCCCCCCCCC(=O)O)C(=O)O)CSCC(=O)N[C@@H](Cc2ccccc2)C(=O)N[C@@H](Cc2c[nH]c3ccccc23)C(=O)N[C@@H](CC(=O)O)C1=O (some centres unmarked) [compound 2246] ({CH2CO}-FWD[NHexGly]Y[Nle]NR[NMeIle(3ξ)][Ahp(2)]P[Tle]SC[AEEA][γGlu][AEEA][Aun]-OH; thioether N-14)
IC50 (read-out: HC CBA mVISTA IC50): 47 nM

CCCCCCN1CC(=O)N[C@@H](Cc2ccc(O)cc2)C(=O)N[C@@H](CCCC)C(=O)N[C@@H](CC(N)=O)C(=O)N[C@@H](CCCNC(N)=O)C(=O)N2Cc3ccccc3C[C@H]2C(=O)N[C@@H](CCCCC)C(=O)N2CCC[C@H]2C(=O)N[C@@H](C(C)C)C(=O)N[C@@H](CC(=O)O)C(=O)N[C@H](C(=O)NCC(N)=O)CSCC(=O)N[C@@H](Cc2ccccc2)C(=O)N[C@@H](Cc2c[nH]c3ccccc23)C(=O)N[C@@H](CC(=O)O)C1=O [Example 1412] ({CH2CO}-FWD[NHexGly]Y[Nle]N[Cit][Tic][Ahp(2)]PVDCG-NH2; thioether N-14)
IC50 (read-out: HC CBA mVISTA IC50): 13.1 nM

CCCCCCN1CC(=O)N[C@@H](Cc2ccc(O)cc2)C(=O)N[C@@H](CCCC)C(=O)N[C@@H](CC(=O)O)C(=O)N[C@@H](CCCNC(N)=O)C(=O)N(C)[C@@H](CCCC)C(=O)N[C@@H](CCCCC)C(=O)N2CCC[C@H]2C(=O)N[C@@H](C(C)C)C(=O)N[C@@H](CC(=O)O)C(=O)N[C@H](C(=O)N[C@@H](CC(=O)O)C(N)=O)CSCC(=O)N[C@@H](Cc2cccc(C)c2)C(=O)N[C@@H](Cc2c[nH]c3ccccc23)C(=O)N[C@@H](CC(=O)O)C1=O [compound 1438] ({CH2CO}-[Phe(3-Me)]WD[NHexGly]Y[Nle]D[Cit][NMeNle][Ahp(2)]PVDCD-NH2; thioether N-14)
IC50 [2]: 22.4 nM

CCCCCCN1CC(=O)N[C@@H](Cc2ccc(O)cc2)C(=O)N[C@@H](CCCC)C(=O)N[C@@H](CC(N)=O)C(=O)N[C@@H](CCCNC(=N)N)C(=O)N(C)[C@@H](CCCC)C(=O)N[C@@H](CCCCC)C(=O)N2CCC[C@H]2C(=O)N[C@@H](C(C)(C)C)C(=O)N[C@@H](CO)C(=O)N[C@H](C(=O)N[C@@H](CC(=O)NCCOCCOCC(=O)NCCCCCCCCCCC(=O)O)C(=O)O)CSCC(=O)N[C@@H](Cc2ccccc2)C(=O)N[C@@H](Cc2ccc(O)cc2)C(=O)N[C@@H](CC(=O)O)C1=O [Example 2190] ({CH2CO}-FYD[NHexGly]Y[Nle]NR[NMeNle][Ahp(2)]P[Tle]SC[βAsp][AEEA][Aun]-OH; thioether N-14)
IC50 (read-out: HC CBA mVISTA IC50): 24.4 nM

Reference: US20240218022A1, “ANTI-VISTA MACROCYCLIC PEPTIDES AND COMPOSITIONS” (BRISTOL-MYERS SQUIBB COMPANY, priority 2022, published 2024)
